Values after ≈ are worked out from the molar mass of the structure shown.
What was measured:
[1] = Determination of solubility in hydrochloric acid solution of pH 4.0 (saturated solution, HPLC); assay type: physicochemical; details: ultrasonic 1 hour; for solubility at 1 h: aqueous buffer, thermodynamic from solid, read-out: Solubilities in hydrochloric acid of pH 4
Protocol: 1.6 mg of compound 4 was weighed and dissolved in a mixed solution of 1 ml of methanol and 0.5 ml of DMSO to obtain a control solution. 7.66 mg of compound 4 was dissolved in hydrochloric acid solution of pH 4.0 and shaken in an ultrasonic device for 1 hour to prepare a saturated solution. The solubility of compound 4 in hydrochloric acid solution of pH 4.0 was determined by HPLC.
The solubilities of compound 5 to compound 17 in hydrochloric acid solution were determined with the process for determining the solubility in Example 52.

[2] = tested on: normal human endothelial cells; details: in vitro; cited from earlier work
human tumour cells = details: nude mice transplanted human tumour cells; cited from earlier work
[3] = Solubilization of compound 1 with surfactants, solution placed for observation; assay type: physicochemical; details: 12 hours
Protocol: (§1) 2.5 mg of compound 1 was weighed and dissolved with 0.5 ml of 0.1N hydrochloric acid solution. 5% (V/V) of polysorbate 80 was added in the resultant solution. The pH of the solution was adjusted with 0.1N of sodium hydroxide to such an extent that precipitates were just to generate.
2.5 mg of compound 1 was weighed and dissolved with 0.5 ml of 0.1N hydrochloric acid solution. An amount of 0.1 N sodium hydroxide solution which is equal to that in Example 25 was added. Precipitates produced.
as §1, with “2” for “2.5”, “polyethylene glycol-12-hydroxy stearate” for “polysorbate 80”
2 mg of compound 1 was weighed and dissolved with 0.5 ml of 0.1N hydrochloric acid solution. The pH was adjusted with an amount of 0.1 N sodium hydroxide solution which is equal to that in Example 27. Precipitates produced.
2 mg of compound 1 was weighed and dissolved with 0.5 ml of 0.1N hydrochloric acid solution. 5% (V/V) of polyoxyethylene castor oil was added in the resultant solution. The pH of the solution was adjusted with 0.1N of sodium hydroxide to such an extent that precipitates were just to generate.
2 mg of compound 1 was weighed and dissolved with 0.5 ml of 0.1N hydrochloric acid solution. The pH was adjusted with an amount of 0.1 N sodium hydroxide solution which is equal to that in Example 29. Precipitates produced.

| Solubilities in hydrochloric acid of pH 4 [1] [mg/ml] | solubility at 1 h [1] [µg/mL] | SMILES | also measured |
| --- | --- | --- | --- |
| 0.000829 | – | N#CNC(=Nc1ccncc1)NCCCCCOc1ccc(Cl)cc1Cl [compound 15, N-cyano-N′-(5-((2,4-dichlorophenyl)oxo)pentyl)-N″-(4-pyridyl)guanidine] | – |
| – | 29.5 (≈ 82.5 µM) | N#CNC(=Nc1ccncc1)NCCCCCOc1ccc(Cl)cc1 [compound 13, N-cyano-N′-(5-(p-chlorophenoxy)pentyl)-N″-(4-pyridyl)guanidine] | – |
| 0.01753 | – | N#CNC(=Nc1ccncc1)NCCCCCOc1c(Cl)cc(Cl)cc1Cl [compound 16] | – |
| 0.00669 | – | N#CNC(=Nc1ccncc1)NCCCCCCOc1c(Cl)cc(Cl)cc1Cl [compound 17, N-cyano-N′-(6-((2,4,6-trichlorophenyl)oxo)hexyl)-N″-(4-pyridyl)guanidine] | – |
| 0.1481 | – | COc1ccccc1OCCCCCCCCNC(=Nc1ccncc1)NC#N [compound 14, N-cyano-N′-(8-((o-methoxyphenyl)oxo)octyl)-N″-(4-pyridyl)guanidine] | – |

Second part, the compound before the results:

| SMILES | Solubilities in hydrochloric acid of pH 4 [1] [mg/ml] | solubility at 1 h [1] [µg/mL] | also measured |
| --- | --- | --- | --- |
| N#CN=C(NCCCCCCCCCCCCNC(=NC#N)Nc1ccncc1)Nc1ccncc1 [compound 4, 1,12-bis(N′-cyano-N″-4-pyridylguanidine)dodecane] | 0.00052 | – | – |
| CC(C)(C)OC(=O)NCCCCCCCCCCCCNC(=Nc1ccncc1)NC#N [compound 5, N-(12-(tert-butoxycarbonylamino)dodecyl)-N′-cyano-N″-(4-pyridyl)guanidine] | – | 0.92 (≈ 2.07 µM) | – |
| N#CNC(=Nc1ccncc1)NCCCCCCOc1ccccc1OC(F)(F)F [compound 10] | 0.01965 | – | – |
| N#CNC(=Nc1ccncc1)NCCCCCCOc1ccc(F)cc1Cl [compound 7] | 0.09993 | – | – |
| N#CNC(=Nc1ccncc1)NCCCCCCOC(=O)c1ccc(Cl)cc1 [compound 6, N-(6-((4-chlorobenzoic acid)ester)hexyl)-N′-cyano-N″-(4-pyridyl)guanidine] | 0.00225 | – | – |
| N#CNC(=Nc1ccncc1)NCCCCCCOc1c(Cl)cccc1Cl [compound 9, N-cyano-N′-(6-((2,6-dichlorophenyl)oxo)hexyl)-N″-(4-pyridyl)guanidine] | 0.05331 | – | – |
| N#CNC(=Nc1ccncc1)NCCCCCCCOc1ccccc1Cl [compound 12, N-cyano-N′-(7-(o-chlorophenoxy)heptyl)-N″-(4-pyridyl)guanidine] | – | 3.72 (≈ 9.64 µM) | – |
| N#CNC(=Nc1ccncc1)NCCCCCOc1ccccc1Cl [compound 11, N-cyano-N′-(5-(o-chlorophenoxy)pentyl)-N″-(4-pyridyl)guanidine] | – | 2.85 (≈ 7.96 µM) | – |
| N#CNC(=Nc1ccncc1)NCCCCCCOc1ccccc1Br [compound 8, N-cyano-N′-(6-(o-bromophenoxy)hexyl)-N″-(4-pyridyl)guanidine] | – | 205 (≈ 494 µM) | – |
| N#CNC(=Nc1ccncc1)NCCCCCCOc1ccc(Cl)cc1 [compound 1, N-cyano-N′-(6-(p-chlorophenoxy)hexyl)-N″-(4-pyridyl)guanidine] | – | – | antiproliferative activity to normal human endothelial cells [2]: significantly lower antiproliferative activity; antitumour activity (human tumour cells): potent antitumour activity; appearance of solution on standing ([3]; Example 25: 0.1N HCl, 5% (V/V) polysorbate 80, pH adjusted with 0.1N NaOH): solution kept clear for 12 hours; appearance of solution on standing ([3]; Example 26: control without polysorbate 80, same amount of NaOH): precipitates increased during 12 hours; appearance of solution on standing ([3]; Example 27: 0.1N HCl, 5% (V/V) polyethylene glycol-12-hydroxy stearate, pH adjusted with 0.1N NaOH): solution kept clear for 12 hours; appearance of solution on standing ([3]; Example 28: control without polyethylene glycol-12-hydroxy stearate, same amount of NaOH): precipitates increased during 12 hours; appearance of solution on standing ([3]; Example 29: 0.1N HCl, 5% (V/V) polyoxyethylene castor oil, pH adjusted with 0.1N NaOH): solution kept clear for 12 hours; appearance of solution on standing ([3]; Example 30: control without polyoxyethylene castor oil, same amount of NaOH): precipitates increased during 12 hours |

— patent US20120029036A1, “PHARMACEUTICAL COMPOSITIONS COMPRISING PYRIDYL CYANOGUANIDINE, PROCESS FOR PREPARING THE SAME AND USE THEREOF” (Tianjin Michele Sci-Tech Development Co., Ltd., priority 2009, published 2012)
